Source: US9650674B2, “Nucleic acid probes and methods of using the same” (Board of Trustees University of Arkansas, priority 2012, dated 2017)
{Cy5.5} = Cy5.5 near-infrared fluorophore label at the ends

Legend:
[1] = Alkaline denaturing of probes, kinetic fluorescence; assay type: physicochemical; details: alkaline buffer
Description: Lastly, the probes' integrity was tested by alkaline denaturing. The probes were treated with alkaline buffer and kinetic detection of the fluorescence was performed. […] AB259.1, AB259.3 and AB259.5 gained 40%, 81%, and 85% of fluorescence, respectively.
(§1) All cell-free experiments were performed using the Bio-Tek Synergy 5 fluorescent plate reader. Before experiments, optimal excitation and emission wavelengths were determined. For this, excitation and emission were scanned in the ranges of 600-680 nm and 690-705 nm, respectively. The optimal excitation/emission was determined to be 665/703 nm. All kinetic and endpoint measurements were done in a total volume of 100 μl at 37° C. Unless stated otherwise, DNA substrate was used in final concentration 0.5 μM reconstituted in endonuclease activity assay (EAA) buffer (2 mM CaCl2, 5 mM MgCl2, 10 mM Tris-HCl, pH 7.4) in a 96-well plate. After measurement of starting fluorescence, DNase I or tested material (diluted 1:20 urine or 1:100 serum) were added to the reconstituted probe, rapidly mixed and fluorescence was monitored for up to 60 min with 30-sec intervals. In some instances, EDTA (final concentration 200 μM) or NaOH (50 mM) was added to terminate the reaction. For the experiments that involved assessment of fluorescence after DNA denaturing, probes were tested in Cepheid real-time PCR system using Cy5 setting (Sunnyvale, Calif.).

DNase I [2] = target: T1, DNase I (Homo sapiens, UniProt P24855); assay: Kinetic fluorescence of probes exposed to DNase I in vitro; assay type: biochemical; details: probe 0.5 μM, DNase I 1 μg/ml; for gain of fluorescence compared to baseline: twenty min into the reaction, FIG. 2B
T1 construct: purchased Sigma (St. Louis, Mo.)
T1 sequence (P24855 23-282): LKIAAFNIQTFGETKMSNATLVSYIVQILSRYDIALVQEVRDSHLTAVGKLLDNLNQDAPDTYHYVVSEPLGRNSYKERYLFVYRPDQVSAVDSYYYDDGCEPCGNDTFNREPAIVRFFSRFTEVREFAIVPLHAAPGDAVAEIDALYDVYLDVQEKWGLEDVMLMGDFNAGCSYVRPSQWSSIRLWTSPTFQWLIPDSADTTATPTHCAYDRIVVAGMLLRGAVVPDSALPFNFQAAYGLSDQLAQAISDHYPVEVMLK
Description: It was hypothesized that exposure of the probes to endonucleases would lead to DNA cleavage and dissociation of protruded strand from the hairpin (FIG. 2A). To assess which of the proposed probes is the best to measure endonuclease activity, the probes (0.5 μM) were exposed with recombinant human DNase I (1 μg/ml) and the kinetic fluorescence curves were recorded. Twenty min into the reaction, AB259.1, AB259.3 and AB259.5 gained 1.75-, 2.6- and 1.62-fold fluorescence, respectively, compared to the baseline (FIG. 2B). At 20-25 min, AB259.1 and AB259.3 reached the plateaus. […] Therefore, AB259.3 was chosen for further experiments.
(§2) To detect specificity of the assay to DNase I that is a Ca/Mg-dependent endonuclease, AB259.3 probe was tested with 1 μg/ml DNase I in the presence of Ca++ and Mg++ (EAA buffer), in absence of the cations (deionized water), or in excess of EDTA (200 μM). […] Finally, it was tested whether AB259.3 probe will detect inhibition of DNase I activity by DNase I inhibitors such as ZnCl2 and Zn-diisopropyl salicylate (Zn-DIPS).
as §1

[3] = Heat denaturing and reannealing of hairpin probes (probe integrity); assay type: physicochemical; details: ROX internal reference; above background; FIG. 1C
Description: To ensure the integrity of the DNA probes, it was tested whether a heat denaturing of the hairpins would cause an increase in fluorescence, and if a reannealing would reverse it. To compensate for thermal change of fluorophore's emission, the ROX fluorophore was added to tested probes as an internal reference.
as §1

[4] = Baseline fluorescence of hairpin DNA probes; assay type: physicochemical; details: FIG. 1B
Excerpt: It was impossible to determine if the background fluorescence was attributed to the probe or it originated from a partial degradation of the probe. Consequently, the NIRF probes were designed as hairpins to allow testing the integrity of DNA by its denaturing followed by reannealing. The use of hairpin also allows easy measurement of the maximum fluorescence of the probe. The distance between two fluorophores varied by changing of protruding DNA strand length from +0 (AB259.1 probe) to +5 (AB259.3 probe) or to +10 (AB259.5 probe) as shown in FIG. 1A. The baseline fluorescence of probe AB259.1 was 30% higher than negative control without a probe (FIG. 1B).
as §1

NRK-52E cells = assay: Intracellular endonuclease activity in cultured cells, time-lapse microscopy; assay type: cell-based, rat; details: 25 μM cisplatin or 50 μM camptothecin for 8 hours; FIGS. 4B and 4C
Description: To test whether AB259.3 probe may be delivered intracellularly and thus be used as an indicator of endonuclease activity in live cells, NRK-52E cells were transfected with of AB259.3/Lipofectamine LTX complexes and imaged by time-lapse epifluorescence microscopy every 10 min for 8 hours. A 2.5-3 times increased fluorescence reached plateau in 1 hour after transfection and the cells retained fluorescent dye for the duration of experiment (FIG. 4A). To induce activity of endonucleases, cells were treated with cisplatin or camptothecin and imaged by time-lapse microscopy for Cy5.5 fluorescence. […] Therefore, it was concluded that AB259.3 can be delivered and used for intracellular monitoring of endonuclease activity in live cells. To further determine whether AB259.3 probe can be used in other cell lines, several of them were tested (FIG. 4D). […] It was then determined whether the probe without the loop would be consumed by NRK-52E cells equally to the original loop probe. […] Finally, PCR was used to determine whether the DNA part (as opposed to the fluorophores) of the probes enters the cells in vivo and in vitro.
Rat proximal tubular epithelial NRK-52E cells were used to test the ability of AB259.3 probe to measure endonuclease activity. The cells were seeded in a 24-well plate at 50,000 cells per well in complete DMEM medium supplemented with 10% fetal bovine serum. Cells were transfected with the AB259.3 probe using Lipofectamin LTX and then subjected to spinning disk confocal fluorescent time-lapse microscopy in 628/40-692/40 spectrum every 10 min for 8 hours using Olympus IX-81 image system equipped with Hamamatsu ORCA-ER camera and LiveCell microenvironmental control chamber (Pathology Devices Inc., Westminster, Md.). In separate experiment, cells were treated with either 25 μM cisplatin or 50 μM camptothecin for 8 hours, followed by 1-hour transfection with AB259.3 probe and 8-hour time-lapse imaging session with 10-min intervals using the same microscopy system.

DNase I [5] = target: T1, DNase I; assay: DNase I endonuclease activity measured with AB259.3 probe in presence of inhibitors; assay type: biochemical; details: 1 μg/ml DNase I; EDTA 200 μM; FIG. 2D
Description: as §2, §1

[6] = test system: wild-type (WT) mouse kidney cryosections; assay: Endonuclease activity ex vivo in kidney cryosections; details: FIG. 5C
Description: Next it was examined whether AB259.3 probe can be used for measurement of endonuclease activity in tissue sections. Kidneys were used because they are known for high activity of DNase I (Ca/Mg-dependent endonuclease). Freshly prepared 10 μm thick cryosections of wild-type (WT) mouse kidney were exposed with 5 μM AB259.3 probe in presence of EAA buffer at 37° C. and time-lapse imaged for 10 min with 1-min intervals.
Specimens of kidney, liver, spleen and testis tissues were removed from euthanized mice, immersed in OCT medium, rapidly frozen by Fisher Freeze-it and kept on dry ice for no longer than 1 hour prior slicing. Tissue cryosections (8-μm thick) were prepared using the Microm HM 505E cryotome, placed to the Fisher Plus slides and immediately exposed with 0.5 μM AB259.3 probe diluted in EAA buffer. In control samples, applied probe contained EAA buffer supplemented with 200 μM EDTA. Images were taken in 628/40-692/40 spectrum every 30 sec for 10 min in 10 random XY coordinates. Three sections from each specimen were analyzed separately. Maximal velocity of increasing fluorescence was averaged for each section.

WT and DNase I KO mice = assay: Intravital imaging of endonuclease activity in kidneys; details: 5 μl DNase I (0.1 mg/ml) subcapsular, left kidney, then AB259.3 50 nmol/kg i.v.; FIGS. 7F and 7G
Description: At the next step, WT and DNase I KO mice were anesthetized and intravenously administered with 50 nmol/kg of AB259.3 probe followed by intravital imaging using Xenogen-IVIS.
To additionally confirm preferential accumulation and processing of AB259.3 probe in kidneys, separate set of mice was deeply anesthetized and subjected to abdominal incision and real-time intravital visualization of left kidney while performing intravenous injection of AB259.3 probe. […] For this, DNase I KO animals were subjected to open surgery that was used to administer 5 μl DNase I (0.1 mg/ml) to subcapsular space of upper ventral zone of left kidney. To control effect of DNase I, additional WT and DNase I KO mice were injected with same volume of the vehicle. Immediately after injection, mice were injected with 50 nmol/kg of AB259.3 probe intravenously and then imaged in a Xenogen-IVIS.
Male DNase I KO mice and their WT counterparts at the age 8-10 weeks were used for all experiments. All procedures with mice were performed under general anesthesia with 50 mg/kg ketamine. For subcutaneous administration, mice were injected with 10 μl of 0.1 μM AB259.3 in the dorsal subcutaneous site. For systemic visualization, AB259.3 was injected intravenously at 50 nmol/kg in tail vein.
Imaging of live and euthanized mice or their isolated organs were performed using Xenogen IVIS Image System 200 (Caliper Life Sciences, Hopkinton, Mass.) equipped with Living Image® Software.

Q: With “[Cy5.5]AACACTCCGATGAGTGTA[Cy5.5] (DNA, 5' {Cy5.5}, 3' {Cy5.5}, backbone not given here; hairpin DNA probe) [AB259.1, hairpin DNA probe with Cy5.5 at both ends, protruding strand +0]” as the molecule, how does the “gain of fluorescence on alkaline denaturing” value [1] read?
A: 40%

Q: And the “gain of fluorescence compared to baseline” value (DNase I [2])?
A: 1.75 fold

Q: And the “gain of fluorescence on heat denaturing” value [3]?
A: 2.7 times

Q: And the “baseline fluorescence higher than negative control without a probe” value [4]?
A: 30%

Q: For `N.N.[Cl][Pt][Cl]` [cisplatin, reference compound], which “induction of endonuclease activity (Cy5.5 fluorescence of AB259.3 in treated cells)” value (NRK-52E cells) is on record?
A: significant increase of fluorescence

Q: Which “effect on DNase I activity detected by AB259.3 fluorescence” value (DNase I [5]) does the source give for `[Cl-].[Cl-].[Zn+2]` [ZnCl2, zinc chloride] here?
A: suppressed

Q: With `CC(C)c1cc(C(=O)O)c([O-])c(C(C)C)c1.CC(C)c1cc(C(=O)O)c([O-])c(C(C)C)c1.[Zn+2]` [Zn-DIPS, zinc-diisopropyl salicylate] as the molecule, how does the “effect on DNase I activity detected by AB259.3 fluorescence” value (DNase I [5]) read?
A: suppressed

Q: Which “induction of endonuclease activity (Cy5.5 fluorescence of AB259.3 in treated cells)” value (NRK-52E cells) does the source give for `CC[C@@]1(O)C(=O)OCc2c1cc1n(c2=O)Cc2cc3ccccc3nc2-1` [camptothecin, reference compound] here?
A: significant increase of fluorescence

Q: Which results are given for `O=C(O)CN(CCN(CC(=O)O)CC(=O)O)CC(=O)O` [EDTA, reference compound]?
A: effect of EDTA on fluorescence increase in cryosections [6]: the increase of fluorescence was prevented; effect on DNase I activity detected by AB259.3 fluorescence (DNase I [5]): inhibited

Q: Which “gain of fluorescence on alkaline denaturing” value [1] does the source give for “[Cy5.5]AACACTCCGATGAGTGTAGAATGTACGAGT[Cy5.5] (DNA, 5' {Cy5.5}, 3' {Cy5.5}, backbone not given here; hairpin DNA probe) [AB259.5, hairpin DNA probe with Cy5.5 at both ends, protruding strand +10]” here?
A: 85%

Q: And the “behaviour of fluorescence at 20-25 min (in words)” value (DNase I [2])?
A: became variable and did not yield reliable gain of fluorescence thereafter

Q: What about the “gain of fluorescence compared to baseline” value (DNase I [2]) of the same molecule?
A: 1.62 fold

Q: And the “gain of fluorescence on heat denaturing” value [3]?
A: 1.8 times

Q: And the “baseline fluorescence (in words)” value ([4]; correlated with length of protruded DNA end)?
A: much higher levels of the baseline fluorescence

B1: DNase I: recombinant DNase I delivered to the kidneys of DNase I KO mice (protein, UniProt P24855 23-282, looked up)
Deoxyribonuclease-1: LKIAAFNIQTFGETKMSNATLVSYIVQILSRYDIALVQEVRDSHLTAVGKLLDNLNQDAPDTYHYVVSEPLGRNSYKERYLFVYRPDQVSAVDSYYYDDGCEPCGNDTFNREPAIVRFFSRFTEVREFAIVPLHAAPGDAVAEIDALYDVYLDVQEKWGLEDVMLMGDFNAGCSYVRPSQWSSIRLWTSPTFQWLIPDSADTTATPTHCAYDRIVVAGMLLRGAVVPDSALPFNFQAAYGLSDQLAQAISDHYPVEVMLK
Q: With B1 as the molecule, how does the “kidney Cy5.5 fluorescence of DNase I KO mice after subcapsular DNase I” value (WT and DNase I KO mice) read?
A: Cy5.5 fluorescence comparable to WT mice
